Assay results as given in ChEMBL document CHEMBL1201862, “PubChem BioAssay data set” (2004).
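Following 48 hours of exposure in 96-well plates, responses at five concentrations were used to interpolate endpoints linearly. Here, GI50 denotes the concentration required for 50% inhibition of growth.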 Calls of active or inactive are those of the source. Rule as the data show it: active = GI50 up to about 1.1 µM and inactive = higher.

Experiments:
Assay in all cases: inhibition of tumour cell growth, NCI panel, 48 h
[1] = tested on: A498
[2] = tested on: EKVX
[3] = tested on: HOP-62
[4] = tested on: HOP-92
[5] = tested on: Hs-578T
[6] = tested on: MOLT-4
[7] = tested on: NCI-H226
[8] = tested on: NCI-H522
[9] = tested on: NCI/ADR-RES
[10] = tested on: OVCAR-3
[11] = tested on: OVCAR-4
[12] = tested on: OVCAR-8
[13] = tested on: PC-3
[14] = tested on: SF-295
[15] = tested on: SNB-19
[16] = tested on: SNB-75
[17] = tested on: TK-10
[18] = tested on: UO-31
[19] = tested on: SR

Measured: GI50

O=C(NNS(=O)(=O)c1ccccc1)c1cccnc1
inactive: [1] > 100 µM | [2] > 100 µM | [3] > 100 µM | [4] > 100 µM | [5] > 100 µM | [6] > 100 µM | [7] > 100 µM | [8] > 100 µM | [9] > 100 µM | [10] > 100 µM | [11] > 100 µM | [12] > 100 µM | [13] > 100 µM | [14] > 100 µM | [15] > 100 µM | [16] > 100 µM | [17] > 100 µM | [18] > 100 µM

O=C1NC(=S)NC(=O)C1C(c1ccccc1[N+](=O)[O-])C1C(=O)NC(=S)NC1=O.c1ccncc1
inactive: [1] > 100 µM | [3] > 100 µM | [4] > 100 µM | [5] > 100 µM | [6] > 100 µM | [7] > 100 µM | [8] > 100 µM | [9] > 100 µM | [10] > 100 µM | [11] > 100 µM | [12] > 100 µM | [13] > 100 µM | [14] > 100 µM | [15] > 100 µM | [17] > 100 µM | [18] > 100 µM

CC[C@@]12C=CC(=S)N(CCSc3ccccc3)[C@@H]1c1c(n(S(=O)(=O)c3ccc(OC)cc3)c3ccccc13)CC2
inactive: [1] > 100 µM | [2] > 100 µM | [3] > 100 µM | [4] > 100 µM | [5] > 100 µM | [6] > 100 µM | [8] > 100 µM | [9] > 100 µM | [10] > 100 µM | [12] > 100 µM | [13] > 100 µM | [14] > 100 µM | [15] > 100 µM | [16] > 100 µM | [17] > 100 µM | [18] > 100 µM

Cc1cccc(C)c1NC(=S)NC=C1C(=O)c2ccccc2C1=O
inactive: [2] 9.82 µM | [3] 23.2 µM | [4] 12.5 µM | [5] 10.5 µM | [7] 46.1 µM | [8] 3.41 µM | [9] 16.8 µM | [10] 5.38 µM | [11] 10.5 µM | [12] 1.44 µM | [13] 3.76 µM | [14] 4.67 µM | [15] 18.2 µM | [16] 3.52 µM | [19] 2.22 µM | [17] 6.73 µM | [18] 9.29 µM
active: [6] 0.75 µM

Cn1c(=O)c2c(nc3n2CC(=O)N3CCCCl)n(C)c1=O
inactive: [1] > 100 µM | [2] > 100 µM | [3] > 100 µM | [4] > 100 µM | [5] > 100 µM | [6] 83.8 µM | [7] > 100 µM | [9] > 100 µM | [10] > 100 µM | [11] > 100 µM | [12] > 100 µM | [13] > 100 µM | [14] > 100 µM | [15] > 100 µM | [16] > 100 µM | [17] > 100 µM | [18] > 100 µM

[N-]=[N+]=Nc1cc(=O)n(-c2ccccc2)c(=O)n1-c1ccccc1
inactive: [2] > 100 µM | [3] > 100 µM | [4] > 100 µM | [5] > 100 µM | [6] > 100 µM | [7] > 100 µM | [8] > 100 µM | [9] > 100 µM | [10] > 100 µM | [11] > 100 µM | [12] > 100 µM | [13] > 100 µM | [14] > 100 µM | [15] > 100 µM | [16] > 100 µM | [19] > 100 µM | [17] > 100 µM | [18] > 100 µM

Clc1ccc2c(c1)CC1C[N+]3=C(CCCC3)C1=C2 (stereo not drawn)
inactive: [1] 72.1 µM | [2] 78.7 µM | [3] 89.9 µM | [4] 63.5 µM | [5] > 100 µM | [6] > 100 µM | [7] 76.6 µM | [8] 47.4 µM | [9] > 100 µM | [10] 34.4 µM | [11] 37.6 µM | [12] 60.7 µM | [13] 60.5 µM | [14] 28 µM | [15] 48.3 µM | [16] 52 µM | [17] 72.8 µM | [18] > 100 µM

CC(C)OP(=O)(CN(C)/C(F)=N\C(F)(F)F)OC(C)C
inactive: [1] > 100 µM | [2] > 100 µM | [3] > 100 µM | [4] > 100 µM | [5] > 100 µM | [6] > 100 µM | [7] > 100 µM | [8] 8.2 µM | [9] > 100 µM | [10] > 100 µM | [12] > 100 µM | [13] > 100 µM | [14] > 100 µM | [15] > 100 µM | [16] > 100 µM | [17] > 100 µM | [18] > 100 µM

CCOC(=O)N/N=C(/N)c1cccc(Br)c1
inactive: [2] 83 µM | [3] > 100 µM | [5] > 100 µM | [6] > 100 µM | [8] > 100 µM | [9] > 100 µM | [10] > 100 µM | [11] > 100 µM | [12] > 100 µM | [13] > 100 µM | [14] > 100 µM | [15] 78.9 µM | [16] > 100 µM | [19] > 100 µM | [17] > 100 µM | [18] 56.1 µM

COc1ccc2c(c1)CCCN1Cc3ccccc3CC21 (stereo not drawn)
inactive: [1] 27 µM | [2] 98.4 µM | [3] 40.8 µM | [4] 30.7 µM | [5] > 100 µM | [6] 54.2 µM | [7] 31.5 µM | [8] > 100 µM | [9] > 100 µM | [10] 52.7 µM | [11] > 100 µM | [12] > 100 µM | [13] 78.9 µM | [14] 65.9 µM | [15] 67.1 µM | [16] 44.7 µM | [17] > 100 µM | [18] 44.7 µM

CCOc1cc2c(cc1O)CC[C@@H]1[C@@H]2CC[C@]2(C)C(N)CC[C@@H]12 (stereo partly drawn)
inactive: [1] 5.52 µM | [2] 4.27 µM | [3] 5.94 µM | [4] 10.6 µM | [5] 3.67 µM | [6] 5.93 µM | [7] 2.77 µM | [8] 3.45 µM | [9] 2.69 µM | [11] 19.3 µM | [12] 2.71 µM | [13] 2.93 µM | [14] 3.24 µM | [15] 4.83 µM | [16] 2.1 µM | [17] 9.2 µM | [18] 3.54 µM
active: [10] 0.811 µM

COc1ccc(C(=O)N2CCN(c3ccc4c(c3)OCC(=O)N4)CC2)cc1OC
inactive: [2] > 100 µM | [3] > 100 µM | [4] > 100 µM | [5] > 100 µM | [6] > 100 µM | [7] > 100 µM | [8] 71.1 µM | [9] > 100 µM | [10] > 100 µM | [11] 38.1 µM | [12] > 100 µM | [13] > 100 µM | [14] > 100 µM | [15] > 100 µM | [16] > 100 µM | [19] > 100 µM | [17] > 100 µM | [18] > 100 µM

CN(C)C(=O)Oc1ccc(C(=S)Nc2ccccc2)cc1Br
inactive: [2] 32.5 µM | [3] 45.1 µM | [5] 8.59 µM | [6] 13.2 µM | [8] 14.8 µM | [9] 20.4 µM | [10] 30.1 µM | [11] 19.1 µM | [12] 17.6 µM | [13] 27.7 µM | [14] 5.11 µM | [15] 74.6 µM | [19] 16.1 µM | [18] 33.5 µM

COc1ccc(OC)c2c(Nc3ccc(S(=O)(=O)O)c4cc(S(=O)(=O)O)cc(S(=O)(=O)O)c34)cc(C)nc12
inactive: [1] > 100 µM | [2] > 100 µM | [3] > 100 µM | [5] > 100 µM | [6] > 100 µM | [7] > 100 µM | [8] > 100 µM | [9] > 100 µM | [10] > 100 µM | [11] > 100 µM | [12] > 100 µM | [13] > 100 µM | [14] > 100 µM | [16] > 100 µM | [17] > 100 µM | [18] > 100 µM

O=S(=O)(O)c1ccc(O)c(/N=N/c2c(O)ccc3ccccc23)c1
inactive: [1] > 100 µM | [2] > 100 µM | [3] > 100 µM | [4] > 100 µM | [5] > 100 µM | [6] > 100 µM | [7] > 100 µM | [8] > 100 µM | [9] > 100 µM | [10] 34.6 µM | [11] > 100 µM | [12] > 100 µM | [13] > 100 µM | [14] > 100 µM | [15] > 100 µM | [16] > 100 µM | [17] > 100 µM | [18] > 100 µM

O=C(O)CC(Cc1ccccc1Cl)C(=O)O (stereo not drawn)
inactive: [1] > 100 µM | [2] > 100 µM | [3] > 100 µM | [4] > 100 µM | [5] > 100 µM | [6] > 100 µM | [7] > 100 µM | [8] > 100 µM | [9] > 100 µM | [10] > 100 µM | [11] > 100 µM | [12] > 100 µM | [13] > 100 µM | [14] > 100 µM | [15] > 100 µM | [17] > 100 µM | [18] > 100 µM
